# Laboratory results taken from US20240091210A1, “USE OF 5-[[4-[2-[5-ACETYLPYRIDIN-2-YL]ETHOXY]BENZYL]-1,3-THIAZOLIDINE-2,4-DIONE AND ITS SALTS” (Minoryx Therapeutics S.L., priority 2018, published 2024).
# Read-outs that look alike come from different tables or passages of the source.
# How the values were obtained:
# [1] = Multiple ascending dose (MAD) study in human subjects; type: in vivo; settings: for Cmax: in vivo, steady state day 8, human, read-out: mean Cmax ss
# [2] = system: wild type MDA MB231 cells; experiment: Seahorse oxygen consumption rate (OCR), wild type MDA MB231 cells; type: cell-based
# Procedure: (§1) To determine whether MIN-102 has any effect on pyruvate-mediated mitochondrial respiration, the extracellular flux analyzer Seahorse was used as described in Compan et al.. Seahorse experiments were performed in the following cell lines: HeLa (Cervix cancer cells), A549 (lung cancer cells), wild type MDA MB 231, and MDA MB 231 in which MPC2 has been deleted, leading to inactivation of the MPC (MDA MB231 KO). MDA MB231 cells are epithelial breast cancer cells. Cells were incubated with increasing concentrations of the compounds for one hour at 37° C. before oxygen consumption rate (OCR) measurements. The Seahorse analyzer allowed to measure basal and maximal respiration measured upon depolarization with 1 μM CCCP. […] The KO cells have been deleted of the MPC2 gene and therefore they display no MPC activity. The top panel show a representative experiment of either wild type (WT) or KO cell lines. […] OCR values are expressed as ratios of OCR in the presence of different concentrations of the tested compound over the OCR in PBS alone.
# MDA MB231 KO cells = experiment: Seahorse oxygen consumption rate (OCR), MDA MB231 KO cells (MPC2 deleted); type: cell-based; settings: MPC activity genetically deleted
# Procedure: as §1
# adiponectin = experiment: Plasma adiponectin levels in rats (ELISA), measure of PPAR gamma engagement; type: in vivo, Sprague Dawley rats; settings: 54 mg/Kg/day for 7 days, plasma 1 h after last dose, vs vehicle
# Procedure: Evaluation of effect of MIN-102 on adiponectin was performed in Sprague Dawley wild type rats as a measure of PPAR gamma engagement. The rats were treated for 7 days with increasing doses of MIN-102 at 54 mg/Kg/day. Plasma were obtained at 1 h after the last MIN-102 administration. Adiponectin levels were measured by ELISA. Results were represented as mean+standard error of the mean of n=8. Data were analyzed by Kruskal-Wallis followed by the Dunn post-hoc test versus the vehicle group (**** p<0.0001).
# [3] = system: MCD diet NASH mouse model; experiment: Methionine Choline Deficient (MCD) diet NASH mouse model; type: in vivo, C57BL6/J male mice; settings: 62.5 mg/kg BID oral, 7 weeks
# Procedure: The preventive effects of MIN-102 was evaluated in a 7-week Methionine Choline Deficient (MCD) diet NASH mouse model (Verdelho Machado et al.). After the acclimation period, C57BL6/J male mice (n=20) were weighed and randomized into 2 homogenous treatment groups based on body weight (n=10/group), put on a MCD diet, and treated BID orally with vehicle or MIN-102 for 7 weeks. MIN-102 was dosed 62.5 mg/kg BID orally by gavage. After the acclimation period, C57BL6/J male mice (n=20) were weighed and randomized into 2 homogenous treatment groups based on body weight (n=10/group), put on a MCD diet, and treated BID orally with a vehicle or MIN-102 (125 mg/Kg/day) for 7 weeks. Body weight was measured 3 times/week until the end of the experimental phase. At 7 weeks of diet/treatment, mice were weighed and treated at ˜08:00 am in the morning, then bled (maximal volume/EDTA) at ˜1:00 pm. Plasma was then immediately isolated and stored at −80° C. prior to assay plasma ALT and AST. The plasma volume left over was stored at −80° C. for eventual additional analysis. After blood collection, the mice were sacrificed by cervical dislocation under isoflurane anesthesia and exsanguinated with sterile saline. A NAFLD scoring system (NAS) adapted from Kleiner et al. (Hepatology. 41(6):1313-1321 (2005)) using the criteria described in the Table 1 below: Several other histopathological observations described in clinical human cases and originally reported in the NAS scoring system published by Kleiner et al. were not observed in this animal study, such as lipogranuloma, acidophil bodies, megamitochondria, and pigmented macrophages. Therefore, it was elected not to include them in the scoring system described above. An individual mouse NAS total score was calculated for each animal by summing up the score for (1) hepatocellular steatosis, (2) liver inflammation, (3) lobular fibrosis, and (4) hepatocyte ballooning. Histology analysis was performed (oil red O, H&E and Sirius Red staining) for NAFLD scoring system (NAS) for liver steatosis, inflammation, fibrosis and hepatocyte ballooning.
# [4] = Minimal effective exposure in mice (dose calculation); type: in vivo; settings: said to correspond to 50 mg/kg
# Procedure: It can be assumed that dose-exposure is linear. The minimal effective exposure of 5-[[4-[2-[5-(1-hydroxyethyl)pyridin-2-yl]ethoxy]phenyl]methyl]-1,3-thiazolidine-2,4-dione hydrochloride is 130 μg·h/mL in mice which corresponds to administration of 50 mg/kg of 5-[[4-[2-[5-(1-hydroxyethyl)pyridin-2-yl]ethoxy]phenyl]methyl]-1,3-thiazolidine-2,4-dione hydrochloride to mice. It follows that the dose to achieve this exposure in mice is […].
smiles,measurement,setting,value
"CC(O)c1ccc(CCOc2ccc(CC3SC(=O)NC3=O)cc2)nc1.Cl (racemic) [MIN-102, 5-[[4-[2-[5-(1-hydroxyethyl)pyridin-2-yl]ethoxy]phenyl]methyl]-1,3-thiazolidine-2,4-dione hydrochloride]",change in clearance with time,"[1]; 135 mg and 270 mg, human",no change in clearance with time
same,Cmax,[1]; 135 mg,9490 ng/mL
same,Cmax,[1]; 270 mg,17200 ng/mL
same,Cmin ss associated with the target AUCss,"[1]; target AUCss 200 μg·h/mL, line of best fit of day 8 Cmin ss vs AUCss",5716 ng/mL
same,effect on oxygen consumption,[2],inhibits oxygen consumption in a MPC dependent manner
same,effect on oxygen consumption,MDA MB231 KO cells,does not inhibit oxygen consumption
same,plasma adiponectin levels,adiponectin,significantly increased
same,hepatic cholesterol levels,[3],did not show a change
same,liver inflammation,[3],total disappearance
same,body weight loss,"[3]; day 14 to day 50, vs vehicle",less severe decline in body weight loss
same,oil red o staining %,"[3]; vs vehicle, p<0.001",extremely low
same,reduction in hepatic triglycerides levels,"[3]; vs vehicle, p<0.001",92%
same,steatosis score,"[3]; vs vehicle, p<0.001",blunted
same,reduction of plasma ALT level,"[3]; vs vehicle, p<0.01",78%
same,reduction of plasma AST level,"[3]; vs vehicle, p<0.01",55%
same,mean NAS group score,"[3]; vehicle 3.40±0.3, p<0.001",0.44±01
same,minimal effective exposure,[4],130 µg·h/mL
